In publication PMC11822212, “High-throughput screening identifies Aurora kinase B as a critical therapeutic target for Merkel cell carcinoma” (Nature Communications, 2025):

Experiments:
[1] = test system: control cell lines (HACAT, HEK293T, CRL-7250, NIH-3T3); test: qHTS cell viability, control cell lines as a group (mean AUC, Control.avg); type: cell-based; conditions: mean AUC of control cell lines
[2] = test system: VP-MCC cell lines (WAGA, MKL-1, MKL-2); test: qHTS cell viability, VP-MCC cell lines as a group (mean AUC, VP.MCC.avg); type: cell-based, human; conditions: for VP-MCC_Avg_AUC: mean AUC of VP-MCC cell lines
HACAT cells = test: qHTS cell viability (CellTiter-Glo, 72 h; primary screen), control cell line; type: cell-based, human
NIH-3T3 cells = test: as above; type: cell-based, mouse
[3] = test system: six MCC cell lines and four control cell lines; test: qHTS cell viability, all 10 cell lines screened; type: cell-based
MKL-1 cells (VP-MCC) = test: qHTS cell viability (CellTiter-Glo, 72 h; primary and follow-up small molecule screen); type: cell-based, human
UISO cells (VN-MCC) = test: as above; type: cell-based, human
MKL-2 cells (VP-MCC) = test: as above; type: cell-based, human
[4] = test system: MCC cell lines (WAGA, MKL-1, MKL-2, MCC13, MCC26, UISO); test: qHTS cell viability, all six MCC cell lines as a group (mean AUC, MCC.avg); type: cell-based, human; conditions: mean AUC of six MCC cell lines
MCC13 cells (VN-MCC) = test: qHTS cell viability (CellTiter-Glo, 72 h; primary and follow-up small molecule screen); type: cell-based, human
WAGA cells (VP-MCC) = test: as above; type: cell-based, human
CRL-7250 cells = test: qHTS cell viability (CellTiter-Glo, 72 h; primary screen), control cell line; type: cell-based
MCC26 cells (VN-MCC) = test: qHTS cell viability (CellTiter-Glo, 72 h; primary and follow-up small molecule screen); type: cell-based, human
HEK293T cells = test: qHTS cell viability (CellTiter-Glo, 72 h; primary screen), control cell line; type: cell-based, human
[5] = test system: VN-MCC cell lines (MCC13, MCC26, UISO); test: qHTS cell viability, VN-MCC cell lines as a group (mean AUC, VN.MCC.avg); type: cell-based, human; conditions: for VN-MCC_Avg_AUC: mean AUC of VN-MCC cell lines
[6] = MIPE library, 11-point DRC, control cell line, sheet S2E
[7] = MIPE library, 11-point DRC, sheet S2E

Compound `CC[N+](CC)(CC)CCOC(=O)C(C1CCCC1)C1CCCC1` [Diponium bromide] has a Control_Avg_AUC ([1]; NPC library) of 482.732, a VP-MCC_Avg_AUC ([2]; NPC library) of 429.684 and a Control-VP-MCC ([2]; NPC library, therapeutic window: Control avg AUC minus VP-MCC avg AUC) of 53.0478. The HACAT_AUC (HACAT cells; NPC library, qHTS dose-response AUC, HACAT control) was 486.819, the HACAT_AUC (HACAT cells; area under the dose-response curve, HACAT control cells, AUC<450 = reduced viability) was 486.819 and the NIH3T3_AUC (NIH-3T3 cells; NPC library, qHTS dose-response AUC, NIH3T3 control) was 484.264. For the same compound, the NIH3T3_AUC (NIH-3T3 cells; area under the dose-response curve, NIH3T3 control cells, AUC<450 = reduced viability) was 484.264, the Control-MCC ([3]; NPC library, therapeutic window: Control avg AUC minus MCC avg AUC) was 18.183 and the MKL1_AUC (MKL-1 cells (VP-MCC); NPC library, qHTS dose-response AUC, MKL1) was 427.875. The MKL1_AUC (MKL-1 cells (VP-MCC); area under the dose-response curve, MKL-1 cells, AUC<450 = reduced viability) was 427.875, the UISO_AUC (UISO cells (VN-MCC); NPC library, qHTS dose-response AUC, UISO) was 475.444 and the UISO_AUC (UISO cells (VN-MCC); area under the dose-response curve, UISO cells, AUC<450 = reduced viability) was 475.444. The MKL2_AUC (MKL-2 cells (VP-MCC); NPC library, qHTS dose-response AUC, MKL2) was 434.115, the MKL2_AUC (MKL-2 cells (VP-MCC); area under the dose-response curve, MKL-2 cells, AUC<450 = reduced viability) was 434.115 and the MCC_Avg_AUC ([4]; NPC library) was 464.549. For the same compound, the MCC13_AUC (MCC13 cells (VN-MCC); NPC library, qHTS dose-response AUC, MCC13) was 522.801, the MCC13_AUC (MCC13 cells (VN-MCC); area under the dose-response curve, MCC13 cells, AUC<450 = reduced viability) was 522.801 and the WAGA_AUC (WAGA cells (VP-MCC); NPC library, qHTS dose-response AUC, WAGA) was 427.062. The WAGA_AUC (WAGA cells (VP-MCC); area under the dose-response curve, WAGA cells, AUC<450 = reduced viability) was 427.062, the CRL7250_AUC (CRL-7250 cells; NPC library, qHTS dose-response AUC, CRL7250 control) was 487.778 and the CRL7250_AUC (CRL-7250 cells; area under the dose-response curve, CRL7250 control cells, AUC<450 = reduced viability) was 487.778. It also gave an MCC26_AUC (MCC26 cells (VN-MCC); NPC library, qHTS dose-response AUC, MCC26) of 499.996, an MCC26_AUC (MCC26 cells (VN-MCC); area under the dose-response curve, MCC26 cells, AUC<450 = reduced viability) of 499.996 and an HEK293T_AUC (HEK293T cells; NPC library, qHTS dose-response AUC, HEK293T control) of 472.065. The HEK293T_AUC (HEK293T cells; area under the dose-response curve, HEK293T control cells, AUC<450 = reduced viability) was 472.065, the VN-MCC_Avg_AUC ([5]; NPC library) was 499.413 and the Control-VN-MCC ([5]; NPC library, therapeutic window: Control avg AUC minus VN-MCC avg AUC) was -16.6818.
Compound `O=c1cc(-c2ccc(O)cc2)oc2cc(O)cc(O)c12` [Apigenin] has a Control_Avg_AUC ([1]; MIPE library, sheet S2E) of 460.174, a Control-VP-MCC ([2]; MIPE library, Control AUC minus VP-MCC AUC (therapeutic window), sheet S2E) of 92.024 and a VP-MCC_Avg_AUC ([2]; MIPE library, sheet S2E) of 368.15. The HACAT_AUC (HACAT cells; [6]) was 470.945, the NIH3T3_AUC (NIH-3T3 cells; [6]) was 470.997 and the Control-MCC ([3]; MIPE library, Control AUC minus MCC AUC (therapeutic window), sheet S2E) was 22.9804. For the same compound, the MKL1_AUC (MKL-1 cells (VP-MCC); [7]) was 377.491, the “Area under the dose-response curve (AUC) MKL-1 Replicate 1” value (MKL-1 cells (VP-MCC); follow-up screen, MKL-1, replicate 1) was 510.1 and the “Area under the dose-response curve (AUC) MKL-1 Replicate 2” value (MKL-1 cells (VP-MCC); follow-up screen, MKL-1, replicate 2) was 521.0. The “Area under the dose-response curve (AUC) MKL-1 Replicate 3” value (MKL-1 cells (VP-MCC); follow-up screen, MKL-1, replicate 3) was 502.5, the UISO_AUC (UISO cells (VN-MCC); [7]) was 485.478 and the “Area under the dose-response curve (AUC) UISO Replicate 1” value (UISO cells (VN-MCC); follow-up screen, UISO, replicate 1) was 472.2. The “Area under the dose-response curve (AUC) UISO Replicate 2” value (UISO cells (VN-MCC); follow-up screen, UISO, replicate 2) was 489.3, the “Area under the dose-response curve (AUC) UISO Replicate 3” value (UISO cells (VN-MCC); follow-up screen, UISO, replicate 3) was 503.1 and the MKL2_AUC (MKL-2 cells (VP-MCC); [7]) was 357.96. The “Area under the dose-response curve (AUC) MKL-2 Replicate 1” value (MKL-2 cells (VP-MCC); follow-up screen, MKL-2, replicate 1) was 530.0, the “Area under the dose-response curve (AUC) MKL-2 Replicate 2” value (MKL-2 cells (VP-MCC); follow-up screen, MKL-2, replicate 2) was 507.8 and the “Area under the dose-response curve (AUC) MKL-2 Replicate 3” value (MKL-2 cells (VP-MCC); follow-up screen, MKL-2, replicate 3) was 497.7. The MCC_Avg_AUC ([4]; MIPE library, sheet S2E) was 437.193, the MCC13_AUC (MCC13 cells (VN-MCC); [7]) was 501.623 and the “Area under the dose-response curve (AUC) MCC13 Replicate 1” value (MCC13 cells (VN-MCC); follow-up screen, MCC13, replicate 1) was 539.3. The “Area under the dose-response curve (AUC) MCC13 Replicate 2” value (MCC13 cells (VN-MCC); follow-up screen, MCC13, replicate 2) was 539.6, the “Area under the dose-response curve (AUC) MCC13 Replicate 3” value (MCC13 cells (VN-MCC); follow-up screen, MCC13, replicate 3) was 514.9 and the WAGA_AUC (WAGA cells (VP-MCC); [7]) was 368.999. For the same compound, the “Area under the dose-response curve (AUC) WAGA Replicate 1” value (WAGA cells (VP-MCC); follow-up screen, WAGA, replicate 1) was 549.1, the “Area under the dose-response curve (AUC) WAGA Replicate 2” value (WAGA cells (VP-MCC); follow-up screen, WAGA, replicate 2) was 497.7 and the “Area under the dose-response curve (AUC) WAGA Replicate 3” value (WAGA cells (VP-MCC); follow-up screen, WAGA, replicate 3) was 481.5. For the same compound, the CRL7250_AUC (CRL-7250 cells; [6]) was 438.96, the MCC26_AUC (MCC26 cells (VN-MCC); [7]) was 531.61 and the “Area under the dose-response curve (AUC) MCC26 Replicate 1” value (MCC26 cells (VN-MCC); follow-up screen, MCC26, replicate 1) was 480.1. For the same compound, the “Area under the dose-response curve (AUC) MCC26 Replicate 2” value (MCC26 cells (VN-MCC); follow-up screen, MCC26, replicate 2) was 461.0, the “Area under the dose-response curve (AUC) MCC26 Replicate 3” value (MCC26 cells (VN-MCC); follow-up screen, MCC26, replicate 3) was 496.4 and the HEK293T_AUC (HEK293T cells; [6]) was 459.794. For the same compound, the Control-VN-MCC ([5]; MIPE library, Control AUC minus VN-MCC AUC (therapeutic window), sheet S2E) was -46.0631 and the VN-MCC_Avg_AUC ([5]; MIPE library, sheet S2E) was 506.237.
